From ChEMBL document CHEMBL3045513, “Design, synthesis, and biological evaluation of novel 2,4-thiazolidinedione derivatives as histone deacetylase inhibitors targeting liver cancer cell line” (Med Chem Res, 2012)
Calls of active or inactive are those of the source. No cut-off for these calls is given here.

What was measured:
[1] = biological target: T1, Histone deacetylase (Homo sapiens) (UniProt Q13547+O15379+Q9UBN7+Q92769+Q9UQL6+Q8WUI4+Q9BY41+Q96DB2+P56524+Q9UKV0+Q969S8); assay: Inhibition of histone deacetylase in Homo sapiens (human) HepG2 nuclear extract assessed as hyperacetylation of H4 at 100 uM after 8 hr by TAU PAGE analysis; format: protein assay
[2] = tested on: HepG2; assay: Antiproliferative activity against Homo sapiens (human) HepG2 cells at 100 uM after 48 hr by MTT assay; format: functional; settings: HepG2, 48 h
[3] = Cytotoxicity against Homo sapiens (human) WRL68 cells at 100 uM after 120 hr by MTT assay; format: cell-based; settings: read-out: INH
[4] = biological target: T1, Histone deacetylase (Homo sapiens); assay: Inhibition of histone deacetylase in Homo sapiens (human) HepG2 cells at 100 uM after 8 hr by colorimetry; format: cell-based
[5] = biological target: T1, Histone deacetylase (Homo sapiens); assay: Inhibition of histone deacetylase in Homo sapiens (human) HepG2 cells assessed as hyperacetylation of H3 at 100 uM after 8 hr by Western blot analysis; format: cell-based
[6] = tested on: HepG2; assay: Antiproliferative activity against Homo sapiens (human) HepG2 cells assessed as elongated shaped cells; format: functional, cell-based
[7] = tested on: HepG2; assay: Antiproliferative activity against Homo sapiens (human) HepG2 cells at 100 uM after 120 hr by MTT assay; format: functional; settings: HepG2, 120 h
[8] = biological target: T1, Histone deacetylase (Homo sapiens); assay: Inhibition of histone deacetylase in Homo sapiens (human) HepG2 nuclear extract assessed as hyperacetylation of H3 at 100 uM after 8 hr by TAU PAGE analysis; format: protein assay
[9] = biological target: T1, Histone deacetylase (Homo sapiens); assay: Inhibition of histone deacetylase in Homo sapiens (human) HepG2 nuclear extract assessed as low level acetylation of H2B at 100 uM after 8 hr by TAU PAGE analysis; format: protein assay
[10] = Cytotoxicity against Homo sapiens (human) WRL68 cells at 100 uM after 48 hr by MTT assay; format: cell-based; settings: read-out: INH
[11] = biological target: T1, Histone deacetylase (Homo sapiens); assay: Inhibition of histone deacetylase in Homo sapiens (human) HepG2 nuclear extract assessed as low level acetylation of H2A at 100 uM after 8 hr by TAU PAGE analysis; format: protein assay
[12] = biological target: T1, Histone deacetylase (Homo sapiens); settings: HepG2, 1 mM
Description: Inhibition of histone deacetylase in Homo sapiens (human) HepG2 cells at 1 mM after 8 hr by colorimetry

Structure (SMILES)	Activity [1]	inhibition at 100 µM [2]	cytotoxicity at 120 h, 100 µM [3]	inhibition [4]	Activity [5]	Activity [6]	inhibition at 100 µM [7]	Activity [8]	Activity [9]	cytotoxicity at 48 h, 100 µM [10]	Activity [11]	inhibition [12]
O=C(NCCCCCCN1C(=O)CSC1=O)c1ccccc1	Active	42.3%	92.3%	42.1%	Active	Active	83%	Active	Active	34.7%	Active	
O=C1CSC(=O)N1CCCCCCNS(=O)(=O)c1ccccc1	Active	57.3%	55.6%	56.9%	Active	Active	69.5%	Active	Active	37.5%	Active	
CCCC(=O)[O-].[Na+]												52.3%
